Where two headings read alike, the source gives them in different places.
Tests used:
[1] = tested on: patients after Austin bunionectomy surgery; details: for use of rescue medication (oxycodone), Mean (SD): n = 43
Procedure: Each transdermal delivery device was applied to the subject between 10 hours and 14 hours before each patient underwent Austin bunionectomy surgery with standard intraoperative anesthesia.
Pain was evaluated in patients at times from immediately after surgery through 72 hours after surgery using the Pain Intensity Numeric Rating Scale (NRS) and Summed Pain Intensity (NRSSPI). Pain was also evaluated based on the time and first use of rescue pain medication as well as total use of rescue medication.

With `Cc1cccc([C@H](C)c2cnc[nH]2)c1C` [Dexmedetomidine] the “use of rescue medication (oxycodone), Mean (SD)” value (“use of rescue medication … (SD)” for short) ([1]; 0 to 24 Hours after Surgery) was 23.5 (11.98), the “use of rescue medication … (SD)” value ([1]; 0 to 48 Hours after Surgery) was 37.5 (22.74) and the “use of rescue medication … (SD)” value ([1]; 0 to 72 Hours after Surgery) was 46.4 (30.80). The “proportion of patients requesting rescue medication” value ([1]; first six hours after surgery, vs placebo) was “lower proportion”, the “pain intensity difference between dexmedetomidine and placebo” value ([1]; over a 4-fold mean plasma dexmedetomidine concentration range) was “constant” and the “pain rating (Numerical Rating Scale) compared to placebo” value ([1]; through 72 hours after surgery, 2×3 cm^2 patch) was “lower pain rating”. The “frequency of requests for rescue medication” value ([1]; vs placebo) was “less frequently”, the solubility of dexmedetomidine (in Duro-Tak 87-2979) was “less than 2%” and the solubility of dexmedetomidine (in Duro-Tak 387/87-2353) was 10-15%. The solubility of dexmedetomidine (in hydroxyl functionalized acrylate polymer) was “less than 1%”, the solubility of dexmedetomidine (in levulinic acid) was about 60% and the solubility of dexmedetomidine (in oleic acid) was about 40%.

— US12527770B2 (Teikoku Pharma USA, Inc., priority 2016, dated 2026)
